In ChEMBL document CHEMBL1201862, “PubChem BioAssay data set” (2004):
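Tested at 5 concentrations; 48 h exposure; 96-well plates; endpoints linearly interpolated, else capped at highest concentration. Here, GI50 denotes the concentration required for 50% inhibition of growth.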 Calls of active or inactive are those of the source. No stated cut-off is given here; in the data, active = GI50 up to about 1.1 µM and inactive = higher.

Assays:
Experiment in all cases: NCI tumour cell line growth inhibition, 48 h
786-0 = system: 786-0
A498 = system: A498
A549 = system: A549
ACHN = system: ACHN
BT-549 = system: BT-549
CAKI-1 = system: CAKI-1
CCRF-CEM = system: CCRF-CEM
COLO 205 = system: COLO 205
DU-145 = system: DU-145
EKVX = system: EKVX
HCC 2998 = system: HCC 2998
HCT-116 = system: HCT-116
HCT-15 = system: HCT-15
HOP-62 = system: HOP-62
HOP-92 = system: HOP-92
HT-29 = system: HT-29
Hs-578T = system: Hs-578T
IGROV-1 = system: IGROV-1
K562 = system: K562
KM12 = system: KM12
LOX IMVI = system: LOX IMVI
M14 = system: M14
MCF7 = system: MCF7
MDA-MB-231 = system: MDA-MB-231
MDA-MB-435 = system: MDA-MB-435
MDA-N = system: MDA-N
MOLT-4 = system: MOLT-4
Malme-3M = system: Malme-3M
NCI-H226 = system: NCI-H226
NCI-H23 = system: NCI-H23
NCI-H460 = system: NCI-H460
NCI-H522 = system: NCI-H522
NCI/ADR-RES = system: NCI/ADR-RES
OVCAR-3 = system: OVCAR-3
OVCAR-4 = system: OVCAR-4
OVCAR-5 = system: OVCAR-5
OVCAR-8 = system: OVCAR-8
PC-3 = system: PC-3
RPMI-8226 = system: RPMI-8226
RXF 393 = system: RXF 393
SF-268 = system: SF-268
SF-295 = system: SF-295
SF-539 = system: SF-539
SK-MEL-28 = system: SK-MEL-28
SK-MEL-5 = system: SK-MEL-5
SK-OV-3 = system: SK-OV-3
SN12C = system: SN12C
SNB-19 = system: SNB-19
SNB-75 = system: SNB-75
SR = system: SR
SW-620 = system: SW-620
TK-10 = system: TK-10
U-251 = system: U-251
UACC-257 = system: UACC-257
UACC-62 = system: UACC-62
UO-31 = system: UO-31

## O=C1C(=C2SC(c3ccccc3)(c3ccccc3)c3ccccc32)C(=O)c2ccccc21
786-0
  GI50: > 100 µM (inactive)
A498
  GI50: > 100 µM (inactive)
A549
  GI50: > 100 µM (inactive)
ACHN
  GI50: > 100 µM (inactive)
BT-549
  GI50: > 100 µM (inactive)
CAKI-1
  GI50: > 100 µM (inactive)
CCRF-CEM
  GI50: > 100 µM (inactive)
COLO 205
  GI50: > 100 µM (inactive)
DU-145
  GI50: > 100 µM (inactive)
EKVX
  GI50: > 100 µM (inactive)
HCC 2998
  GI50: > 100 µM (inactive)
HCT-116
  GI50: > 100 µM (inactive)
HCT-15
  GI50: > 100 µM
HOP-62
  GI50: > 100 µM (inactive)
HOP-92
  GI50: > 100 µM (inactive)
HT-29
  GI50: > 100 µM (inactive)
Hs-578T
  GI50: > 100 µM (inactive)
IGROV-1
  GI50: > 100 µM (inactive)
K562
  GI50: > 100 µM (inactive)
KM12
  GI50: > 100 µM (inactive)
LOX IMVI
  GI50: > 100 µM (inactive)
M14
  GI50: > 100 µM (inactive)
MCF7
  GI50: > 100 µM (inactive)
MDA-MB-231
  GI50: > 100 µM (inactive)
MDA-MB-435
  GI50: > 100 µM (inactive)
MDA-N
  GI50: > 100 µM (inactive)
MOLT-4
  GI50: > 100 µM (inactive)
Malme-3M
  GI50: > 100 µM (inactive)
NCI-H226
  GI50: > 100 µM (inactive)
NCI-H23
  GI50: > 100 µM (inactive)
NCI-H460
  GI50: > 100 µM (inactive)
NCI-H522
  GI50: > 100 µM (inactive)
NCI/ADR-RES
  GI50: > 100 µM (inactive)
OVCAR-3
  GI50: > 100 µM (inactive)
OVCAR-4
  GI50: > 100 µM (inactive)
OVCAR-5
  GI50: > 100 µM (inactive)
OVCAR-8
  GI50: > 100 µM (inactive)
PC-3
  GI50: 82.4 µM (inactive)
RPMI-8226
  GI50: > 100 µM (inactive)
RXF 393
  GI50: > 100 µM (inactive)
SF-268
  GI50: > 100 µM (inactive)
SF-295
  GI50: > 100 µM (inactive)
SF-539
  GI50: > 100 µM (inactive)
SK-MEL-28
  GI50: > 100 µM (inactive)
SK-MEL-5
  GI50: > 100 µM (inactive)
SK-OV-3
  GI50: > 100 µM (inactive)
SN12C
  GI50: > 100 µM (inactive)
SNB-19
  GI50: > 100 µM (inactive)
SNB-75
  GI50: > 100 µM (inactive)
SR
  GI50: 65.2 µM (inactive)
SW-620
  GI50: > 100 µM (inactive)
TK-10
  GI50: > 100 µM (inactive)
U-251
  GI50: > 100 µM (inactive)
UACC-257
  GI50: 72.4 µM (inactive)
UACC-62
  GI50: > 100 µM (inactive)
UO-31
  GI50: > 100 µM (inactive)
